Assay [1] deals with T1, G protein-coupled receptor kinase 3 (Homo sapiens) (UniProt P35626).
T1 sequence (whole entry): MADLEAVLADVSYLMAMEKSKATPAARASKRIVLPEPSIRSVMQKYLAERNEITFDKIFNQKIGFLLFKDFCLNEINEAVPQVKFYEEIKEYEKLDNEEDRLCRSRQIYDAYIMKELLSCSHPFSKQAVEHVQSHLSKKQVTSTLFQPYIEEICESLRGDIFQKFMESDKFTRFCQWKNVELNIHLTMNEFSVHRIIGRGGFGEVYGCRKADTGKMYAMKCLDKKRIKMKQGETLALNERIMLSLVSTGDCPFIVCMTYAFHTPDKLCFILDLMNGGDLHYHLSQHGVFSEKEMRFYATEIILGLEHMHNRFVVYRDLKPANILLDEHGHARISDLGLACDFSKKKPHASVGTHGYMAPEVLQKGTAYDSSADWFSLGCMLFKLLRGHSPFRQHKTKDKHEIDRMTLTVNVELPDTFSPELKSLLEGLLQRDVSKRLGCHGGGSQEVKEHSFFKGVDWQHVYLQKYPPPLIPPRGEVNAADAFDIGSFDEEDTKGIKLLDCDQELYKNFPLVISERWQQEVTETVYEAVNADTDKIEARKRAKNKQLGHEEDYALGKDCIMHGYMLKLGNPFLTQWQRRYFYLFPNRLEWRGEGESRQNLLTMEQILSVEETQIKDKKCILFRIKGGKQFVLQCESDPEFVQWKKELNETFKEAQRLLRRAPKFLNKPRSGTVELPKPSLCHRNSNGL
Kind of assay: Selectivity interaction (ProQinase) EUB0000171b ADRBK2.

In assay [2] the target is Mitogen-activated protein kinase kinase kinase 1 (Homo sapiens, UniProt Q13233). Kind of assay: Selectivity interaction (ProQinase) EUB0000171b MAP3K1.
Assay [3] deals with MAP/microtubule affinity-regulating kinase 3 (Homo sapiens) (UniProt P27448). Nature of the assay: Selectivity interaction (Ambit KINOMEscan and KiNATiv profiling in Jurkat cells) EUB0000090b MARK3. To be noted: at 1 µM. Type of assay: cell-based.
For assay [4], the target named is T2, Mitogen-activated protein kinase kinase kinase 7 (Homo sapiens) (UniProt O43318).
T2 sequence (whole entry): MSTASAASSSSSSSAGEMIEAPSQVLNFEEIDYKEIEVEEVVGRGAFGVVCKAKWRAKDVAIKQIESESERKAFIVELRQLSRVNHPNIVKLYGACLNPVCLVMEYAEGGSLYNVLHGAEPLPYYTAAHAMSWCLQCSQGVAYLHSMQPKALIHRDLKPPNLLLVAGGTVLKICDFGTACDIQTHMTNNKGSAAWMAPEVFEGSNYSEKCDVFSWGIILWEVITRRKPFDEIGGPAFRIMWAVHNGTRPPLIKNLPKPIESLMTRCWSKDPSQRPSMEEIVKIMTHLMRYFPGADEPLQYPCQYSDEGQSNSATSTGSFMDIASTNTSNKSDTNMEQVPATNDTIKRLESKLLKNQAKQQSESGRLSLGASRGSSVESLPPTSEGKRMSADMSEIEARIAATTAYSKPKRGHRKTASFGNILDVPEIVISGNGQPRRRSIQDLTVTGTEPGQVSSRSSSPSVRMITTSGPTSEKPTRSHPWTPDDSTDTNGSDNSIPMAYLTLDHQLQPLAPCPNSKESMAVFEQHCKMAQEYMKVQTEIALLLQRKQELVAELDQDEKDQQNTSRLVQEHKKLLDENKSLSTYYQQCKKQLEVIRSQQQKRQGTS
Kind of assay: Selectivity interaction (Ambit KINOMEscan and KiNATiv profiling in Jurkat cells) EUB0000090b MAP3K7. Type of assay: cell-based. To be noted: at 1 µM.

For assay [5], the target named is T2, Mitogen-activated protein kinase kinase kinase 7 (Homo sapiens). Nature of the assay: Selectivity interaction (KinomeScan (DiscoverX)) EUB0001079a MAP3K7. The note with it: at 1 µM.
Assay [6] has as its target Macrophage colony-stimulating factor 1 receptor (Homo sapiens) (UniProt P07333). Kind of assay: Selectivity interaction (KinomeScan (DiscoverX)) EUB0001049a CSF1R. The note with it: at 1 µM.
Assay [7] has as its target Mitogen-activated protein kinase kinase kinase 9 (Homo sapiens) (UniProt P80192). Kind of assay: Selectivity interaction (KinomeScan (DiscoverX)) EUB0000695a MAP3K9. To be noted: at 100 nM.
Assay [8] deals with Protein arginine N-methyltransferase 8 (Homo sapiens, UniProt Q9NR22). Kind of assay: Selectivity interaction (Transferase panel (protein, RNA, and DNA methyltransferases. and EP300 (acetyltransferase))) EUB0000270b PRMT8.
The target of assay [9] is Calcium/calmodulin-dependent protein kinase type II subunit delta (Homo sapiens) (UniProt Q13557). Nature of the assay: Selectivity interaction (ActivX KiNativ screen (kinase selectivity in THP-1 cell lysates)) EUB0000639a CAMK2D. Type of assay: subcellular. The note with it: lysate.
The target in assay [10] is Dual specificity mitogen-activated protein kinase kinase 2 (Homo sapiens) (UniProt P36507). Nature of the assay: Selectivity interaction (Kinase panel (Invitrogen)) EUB0000639a MAP2K2. To be noted: at 200 nM.
Assay [11] addresses T3, Lymphokine-activated killer T-cell-originated protein kinase (Homo sapiens) (UniProt Q96KB5).
T3 sequence (whole entry): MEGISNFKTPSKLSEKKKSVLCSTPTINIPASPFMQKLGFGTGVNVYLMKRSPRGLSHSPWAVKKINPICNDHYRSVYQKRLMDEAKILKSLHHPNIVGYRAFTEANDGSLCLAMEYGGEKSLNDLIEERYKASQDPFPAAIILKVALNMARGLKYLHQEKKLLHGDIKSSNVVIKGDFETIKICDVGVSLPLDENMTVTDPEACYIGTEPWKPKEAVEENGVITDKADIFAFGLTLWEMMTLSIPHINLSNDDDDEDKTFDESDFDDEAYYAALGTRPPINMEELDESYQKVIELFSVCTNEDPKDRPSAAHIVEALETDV
Kind of assay: Selectivity interaction (Kinase panel (literature)) EUB0001199aCl PBK. To be noted: at 1 µM.

The target in assay [12] is STE20-like serine/threonine-protein kinase (Homo sapiens, UniProt Q9H2G2). Kind of assay: Selectivity interaction (Kinase panel (KiNativ target engagement assay in Jurkat cells)) EUB0001635a SLK. To be noted: Selectivity number of off-targets 0.0, Selectivity number of targets 233.0, Source Knowledge https://www.sciencedirect.com/science/article/pii/S2451945619300674?via%3Dihub, at 1 µM. Type of assay: cell-based.

Structures are written as SMILES.

Calcium/calmodulin-dependent protein kinase type II subunit delta (Homo sapiens), sequence (Q13557 whole entry): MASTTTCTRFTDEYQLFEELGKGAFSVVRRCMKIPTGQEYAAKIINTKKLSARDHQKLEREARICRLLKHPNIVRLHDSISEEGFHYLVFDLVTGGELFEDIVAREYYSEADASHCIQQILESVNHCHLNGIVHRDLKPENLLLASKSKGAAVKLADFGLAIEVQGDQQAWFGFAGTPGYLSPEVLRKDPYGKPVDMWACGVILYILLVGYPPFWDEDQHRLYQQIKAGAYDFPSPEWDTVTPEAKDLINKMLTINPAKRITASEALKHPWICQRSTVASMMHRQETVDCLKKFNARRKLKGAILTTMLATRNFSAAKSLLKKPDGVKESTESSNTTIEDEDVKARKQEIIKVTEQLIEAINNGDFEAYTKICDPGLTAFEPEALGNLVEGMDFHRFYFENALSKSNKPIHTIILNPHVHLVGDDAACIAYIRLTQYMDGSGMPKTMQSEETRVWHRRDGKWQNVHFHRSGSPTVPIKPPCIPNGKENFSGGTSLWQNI
Protein arginine N-methyltransferase 8, sequence (Q9NR22 2-394 limits assumed): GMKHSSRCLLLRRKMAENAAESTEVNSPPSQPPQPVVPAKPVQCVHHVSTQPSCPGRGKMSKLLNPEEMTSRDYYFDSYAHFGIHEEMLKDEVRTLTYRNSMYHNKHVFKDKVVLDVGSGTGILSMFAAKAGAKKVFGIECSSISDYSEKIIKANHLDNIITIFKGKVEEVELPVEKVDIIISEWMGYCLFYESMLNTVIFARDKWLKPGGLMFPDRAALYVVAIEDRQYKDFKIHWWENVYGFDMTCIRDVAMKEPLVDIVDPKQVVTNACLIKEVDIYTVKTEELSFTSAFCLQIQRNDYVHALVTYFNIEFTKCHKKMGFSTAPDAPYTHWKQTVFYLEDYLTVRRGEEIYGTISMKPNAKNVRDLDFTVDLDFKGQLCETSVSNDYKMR
Mitogen-activated protein kinase kinase kinase 1, sequence (Q13233 whole entry): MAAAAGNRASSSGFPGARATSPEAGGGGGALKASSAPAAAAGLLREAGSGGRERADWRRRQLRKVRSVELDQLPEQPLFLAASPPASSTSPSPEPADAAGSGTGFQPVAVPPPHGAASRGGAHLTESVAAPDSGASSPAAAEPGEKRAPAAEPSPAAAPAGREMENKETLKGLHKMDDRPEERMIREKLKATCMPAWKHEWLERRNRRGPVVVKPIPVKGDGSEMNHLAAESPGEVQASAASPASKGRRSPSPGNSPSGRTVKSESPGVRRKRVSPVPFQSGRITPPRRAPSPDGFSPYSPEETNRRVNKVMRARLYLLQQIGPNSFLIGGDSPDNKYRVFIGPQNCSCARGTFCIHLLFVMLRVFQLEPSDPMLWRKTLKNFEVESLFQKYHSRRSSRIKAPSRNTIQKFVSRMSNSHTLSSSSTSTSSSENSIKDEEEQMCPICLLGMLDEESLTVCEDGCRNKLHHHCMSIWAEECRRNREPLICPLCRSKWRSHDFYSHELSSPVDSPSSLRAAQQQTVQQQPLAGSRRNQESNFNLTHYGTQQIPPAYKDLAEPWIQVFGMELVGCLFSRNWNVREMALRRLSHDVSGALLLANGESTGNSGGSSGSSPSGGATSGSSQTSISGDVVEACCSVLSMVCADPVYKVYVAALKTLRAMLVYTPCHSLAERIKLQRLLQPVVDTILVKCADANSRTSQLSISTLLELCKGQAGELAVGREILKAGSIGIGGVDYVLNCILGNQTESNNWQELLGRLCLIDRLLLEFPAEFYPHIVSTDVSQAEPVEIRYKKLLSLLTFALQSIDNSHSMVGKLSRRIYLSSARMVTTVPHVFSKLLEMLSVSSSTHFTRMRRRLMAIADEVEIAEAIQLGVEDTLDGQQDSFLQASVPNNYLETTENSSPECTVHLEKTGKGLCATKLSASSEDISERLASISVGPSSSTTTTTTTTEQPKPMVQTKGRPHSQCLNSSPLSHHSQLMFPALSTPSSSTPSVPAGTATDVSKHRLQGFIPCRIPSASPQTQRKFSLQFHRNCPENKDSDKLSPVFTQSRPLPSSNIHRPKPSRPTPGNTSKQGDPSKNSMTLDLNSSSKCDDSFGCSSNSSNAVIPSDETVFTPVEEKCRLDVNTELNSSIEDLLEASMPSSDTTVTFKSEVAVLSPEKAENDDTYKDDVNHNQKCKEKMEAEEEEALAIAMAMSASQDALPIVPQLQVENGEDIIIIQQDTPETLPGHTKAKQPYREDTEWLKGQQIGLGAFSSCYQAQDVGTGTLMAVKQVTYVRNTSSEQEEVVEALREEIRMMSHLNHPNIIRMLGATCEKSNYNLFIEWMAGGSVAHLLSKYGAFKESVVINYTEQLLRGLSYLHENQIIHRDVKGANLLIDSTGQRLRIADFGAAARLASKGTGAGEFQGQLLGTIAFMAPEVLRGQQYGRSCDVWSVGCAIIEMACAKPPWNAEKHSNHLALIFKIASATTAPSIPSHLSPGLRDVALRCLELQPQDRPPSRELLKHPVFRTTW
STE20-like serine/threonine-protein kinase, sequence (Q9H2G2 whole entry, looked up): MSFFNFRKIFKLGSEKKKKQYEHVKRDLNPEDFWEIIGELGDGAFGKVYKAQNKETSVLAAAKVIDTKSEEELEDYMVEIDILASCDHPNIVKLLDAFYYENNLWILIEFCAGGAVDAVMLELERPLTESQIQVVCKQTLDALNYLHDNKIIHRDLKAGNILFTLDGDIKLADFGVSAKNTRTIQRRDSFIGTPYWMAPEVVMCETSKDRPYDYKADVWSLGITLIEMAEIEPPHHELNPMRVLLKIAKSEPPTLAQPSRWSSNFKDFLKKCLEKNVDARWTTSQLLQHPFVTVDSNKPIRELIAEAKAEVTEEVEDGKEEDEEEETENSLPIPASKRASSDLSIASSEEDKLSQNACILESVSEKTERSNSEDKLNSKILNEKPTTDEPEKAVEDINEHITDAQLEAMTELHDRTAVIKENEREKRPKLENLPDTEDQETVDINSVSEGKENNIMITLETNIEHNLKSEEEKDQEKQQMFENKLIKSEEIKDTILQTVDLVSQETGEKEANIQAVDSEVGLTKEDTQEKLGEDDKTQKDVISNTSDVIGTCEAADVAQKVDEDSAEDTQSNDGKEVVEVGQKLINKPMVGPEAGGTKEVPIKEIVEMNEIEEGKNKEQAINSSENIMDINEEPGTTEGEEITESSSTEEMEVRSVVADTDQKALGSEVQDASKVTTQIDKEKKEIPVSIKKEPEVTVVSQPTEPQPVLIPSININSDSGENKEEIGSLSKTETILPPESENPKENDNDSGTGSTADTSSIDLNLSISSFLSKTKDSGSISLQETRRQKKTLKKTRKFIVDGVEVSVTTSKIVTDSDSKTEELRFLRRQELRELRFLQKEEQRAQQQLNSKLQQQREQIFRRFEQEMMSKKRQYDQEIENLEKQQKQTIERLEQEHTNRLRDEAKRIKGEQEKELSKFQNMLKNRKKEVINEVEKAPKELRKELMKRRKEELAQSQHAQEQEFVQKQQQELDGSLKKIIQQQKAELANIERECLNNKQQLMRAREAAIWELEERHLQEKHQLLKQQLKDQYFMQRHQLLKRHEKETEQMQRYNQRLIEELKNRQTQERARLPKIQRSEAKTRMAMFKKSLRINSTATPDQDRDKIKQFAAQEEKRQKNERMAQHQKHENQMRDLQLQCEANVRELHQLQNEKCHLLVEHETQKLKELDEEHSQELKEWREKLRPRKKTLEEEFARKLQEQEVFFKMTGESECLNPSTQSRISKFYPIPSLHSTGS
MAP/microtubule affinity-regulating kinase 3 (Homo sapiens), sequence (P27448 whole entry, looked up): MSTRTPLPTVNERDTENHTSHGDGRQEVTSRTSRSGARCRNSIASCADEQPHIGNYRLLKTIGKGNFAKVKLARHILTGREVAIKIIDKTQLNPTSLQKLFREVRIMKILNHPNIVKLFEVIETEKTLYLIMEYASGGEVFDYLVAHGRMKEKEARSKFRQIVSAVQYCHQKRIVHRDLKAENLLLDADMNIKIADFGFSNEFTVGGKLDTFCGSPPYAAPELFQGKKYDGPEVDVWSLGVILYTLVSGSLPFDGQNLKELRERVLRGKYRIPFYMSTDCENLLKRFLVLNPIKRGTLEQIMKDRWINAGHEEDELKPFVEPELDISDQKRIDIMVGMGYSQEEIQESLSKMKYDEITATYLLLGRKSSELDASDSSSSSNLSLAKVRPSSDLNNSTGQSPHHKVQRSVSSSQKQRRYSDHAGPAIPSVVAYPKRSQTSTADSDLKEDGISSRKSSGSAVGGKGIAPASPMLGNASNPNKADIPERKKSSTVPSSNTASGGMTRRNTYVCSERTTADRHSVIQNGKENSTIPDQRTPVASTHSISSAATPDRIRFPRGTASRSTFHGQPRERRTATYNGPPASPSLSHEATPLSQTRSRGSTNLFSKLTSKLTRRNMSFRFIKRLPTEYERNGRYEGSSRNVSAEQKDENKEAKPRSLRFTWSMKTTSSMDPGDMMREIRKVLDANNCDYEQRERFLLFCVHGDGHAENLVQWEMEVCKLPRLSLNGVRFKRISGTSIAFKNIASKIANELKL
Dual specificity mitogen-activated protein kinase kinase 2 (Homo sapiens), sequence (P36507 whole entry): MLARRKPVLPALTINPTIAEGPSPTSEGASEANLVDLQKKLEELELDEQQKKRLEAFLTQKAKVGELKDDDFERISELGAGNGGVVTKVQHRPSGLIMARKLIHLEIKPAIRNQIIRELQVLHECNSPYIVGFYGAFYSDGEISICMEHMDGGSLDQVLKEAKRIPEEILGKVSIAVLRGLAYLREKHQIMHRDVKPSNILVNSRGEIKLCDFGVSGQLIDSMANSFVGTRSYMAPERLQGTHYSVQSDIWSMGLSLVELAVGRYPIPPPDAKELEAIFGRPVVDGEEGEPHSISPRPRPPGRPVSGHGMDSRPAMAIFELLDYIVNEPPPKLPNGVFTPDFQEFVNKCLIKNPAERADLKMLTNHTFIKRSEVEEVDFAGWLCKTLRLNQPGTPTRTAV

`C=CC(=O)Nc1cccc(C(=O)Nc2ccc(Nc3cc(-c4[nH]c(SC)nc4C)ccn3)cc2)c1`: the % of control amounted to 94% in assay [1] (at 1 µM), 95% in assay [1] (at 5 µM), 100% in [2] (at 1 µM) and 96% in [2] (at 5 µM).
For `CN(C)C/C=C/C(=O)Nc1ccc(C(=O)N2CCCC(Nc3ncc(Cl)c(-c4c[nH]c5ccccc45)n3)C2)cc1` (centres undefined), the % of control was 88% in assay [3] and 90% in [4].
In the case of `Nc1cnc(N2CCc3cc(S(=O)(=O)Nc4c(F)cc(Cl)cc4F)cc(N4CCCC4=O)c32)nc1` [TP-020n], the % of control in [5] stood at 100%.
`COc1cc(Nc2nc(C)cc(-c3cnn4nc(OC)ccc34)n2)cc(C(F)(F)F)c1`: in assay [6], the % of control came to 100%.
Consider `Cc1cc(F)c(C(=O)Nc2cccc(-c3nncn3C(C)C)n2)cc1-n1cnc(C2CC2)c1`, for which the % of control in [7] turned out to be 99%.
For the compound `Cc1cc(CN)cc(C)c1-c1ncn(C)c1-c1cncn1C`, the % activity in [8] (at 1 µM) is more than 90%; in assay [8] (at 10 µM), more than 80%.
Consider `CC[C@@H]1[C@H](F)C(=O)N[C@@H]1COc1nccc2cc(C(N)=O)c(OC)cc12` [ZIMLOVISERTIB], for which the % of inhibition in [9] (at 0.01 µM) was determined as 14.2%; in assay [9] (at 0.04 µM), 9.6%; in assay [9] (at 0.2 µM), 16.3%; in assay [9] (at 1 µM), 36.4%; in assay [9] (at 5 µM), 61.2%; in assay [10], 5.73%.
For `CN1Cc2nccc(-c3cn(C)nc3-c3ccc(F)cc3)c2C1=O`, the % of inhibition in assay [11] was -3%.
For the compound `C=CC(=O)Nc1ccc(C(=O)Nc2[nH]nc3c2CN(C(=O)N[C@H](CN(C)C)c2ccccc2)C3(C)C)cc1`, the % of engagement in [12] amounted to 13%.

These data come from ChEMBL document CHEMBL5465560, “Selectivity Literature for EUbOPEN Chemogenomic Library” (2024).
